Experiments:
[1] = test system: hemoglobin or ferritin-related stores; settings: cited from earlier work
[2] = test system: hemoglobin or ferritin-related stores; settings: given in early stage of iron deficiency (ferritin below 100 ug/L or transferrin saturation below 20%)

Q: Which “quantitative iron utilization for hemoglobin or ferritin-related stores” value ([1]; dialysis-associated anemia, within the first 90 days after infusion, previous retrospective analysis) does the source give for iron dextran here?
A: highly variable and incomplete within the first 90 days

Q: What about the “recovery of iron for hemoglobin synthesis or iron stores” value ([1]; iron deficiency anemia and normal renal function, early after intravenous infusion) of the same substance?
A: incomplete

Q: And the hemoglobin response [2]?
A: without a concomitant increase in hemoglobin

Q: What about the serum ferritin response [2] of the same substance?
A: rise in serum ferritin

From patent US5624668A (Luitpold Pharmaceuticals, Inc., priority 1995, dated 1997)
